Numbered stars: 1 amine (or outer) side, 2 acyl side, 3 side chain; on linkers, the order of the positions; unused ones are H or OH. Bridge positions count the residues as written; N and C are the ends. Square brackets hold non-standard residues; d marks the D form. Peptide text beside a SMILES is read from it. * marks the point of attachment. C20 diacid = O=C(O)CCCCCCCCCCCCCCCCCCC(=O)*; γGlu = O=C(O)[C@H](CCC(=O)[*:2])N[*:1]; NMeI = CC[C@H](C)[C@H](NC)C(=O)O; Sar = CNCC(=O)O
What was measured:
[1] = Assessment of chemical stability: normalized purity by RP-HPLC after incubation at 40 °C; format: physicochemical; details: normalized purity (T=0 set to 100), 0.2 mg/ml
In short: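 Peptides at 0.2 mg/ml in water adjusted to pH 4, 7.5 or 9, held at 40 °C for 7 days. Purity by RP-HPLC (C8/ammonium formate or C18/TFA gradients), UV 220 nm, as main-peak area-%; normalized to T=0 set as 100 for each pH.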

[2] = Pharmacokinetic (PK) profiling in rats; format: in vivo; details: male, Sprague Dawley, rat, plasma, single sc bolus, 100 nmol/kg (18, NN96), 20 nmol/kg (72, 76), 30 nmol/kg (73, 82, 118, 162, 166, 172); for CL/F: apparent clearance; for half-life: terminal elimination half-life, read-out: t½ (converted)
Method: Sprague Dawley male rats were given a single subcutaneous (sc) bolus of each peptide to be tested at doses as specified below..
Study A: Following the administration of a 100 nmol/kg dose of a test peptide of the invention (Compound 18) and a comparison pramlintide analogue NN96 (see Example 5, above), respectively, blood samples were drawn from the tail vein at 0.5, 3, 8, 15, 36, 60 and 81 hours post-dosing. 4 rats were used (2 rats per compound). The rats were euthanized immediately after the last blood sampling by overdose of O2/CO2.
Study B: 20 nmol/kg doses of Compound 72 and Compound 76, respectively, of the invention were administered. Blood samples were drawn by sublingual bleeding prior to dosing and at 2, 6, 12, 24, 48, 72 and 96 hours after dosing. 4 rats were used (2 rats per compound). The rats were euthanized immediately after the last blood sampling by overdose of O2/CO2.
Study C: 30 nmol/kg doses of Compound 73, Compound 82 and Compound 118, respectively, of the invention were administered. Blood samples were drawn from the tail vein prior to dosing and at 24, 48, 72 and 96 hours after dosing. Blood samples were taken from two rats at each time point, and only 2 blood samples were drawn from each rat, i.e. 8 rats were used for each compound. The rats were euthanized immediately after the last blood sampling by concussion and cervical dislocation.
Study D: 30 nmol/kg doses of Compound 162, Compound 166 and Compound 172 were administered. Blood samples were drawn from the tail vein prior to dosing and at 24, 48, 72, 96 and 168 hours after dosing. Blood samples were taken from two rats at each time point, and only 2 blood samples were drawn from each rat, i.e. 10 rats were used for each compound. The rats were euthanized immediately after the last blood sampling by concussion and cervical dislocation.
The dosing vehicle used for each test peptide was a mannitol-containing histidine buffer (pH 7.0). Plasma samples were analyzed after precipitation with ethanol by liquid chromatography mass spectrometry (LC-MS/MS). Mean plasma concentrations were used for calculation of the pharmacokinetic parameters using the non-compartmental approach in Phoenix WinNonlin 6.3.
Plasma terminal elimination half-life (t½) was determined as In(2)/λz, where λz is the magnitude of the slope of the log linear regression of the log concentration versus time profile during the terminal phase. Apparent clearance (CL/F) was determined as dose/AUCinf (sc), where AUCinf is the area under the plasma concentration vs. time curve extrapolated to infinity (AUCinf = AUClast + Clast/λz, where Clast is the last observed plasma concentration).

Compound | Chem. stability; 7 days, 40°C pH 4 ([1]; pH 4, 7 days) [area-%] | Chem. stability; 7 days, 40°C pH 7.5 ([1]; pH 7.5, 7 days) [area-%] | Chem. stability; 7 days, 40°C pH 9 ([1]; pH 9, 7 days) [area-%] | CL/F [2] [mL/h/kg] | half-life [2] [min]
CC[C@H](C)[C@@H](C(=O)N[C@@H](CC(C)C)C(=O)N[C@H](CO)C(=O)N[C@@H](CO)C(=O)N[C@H](C(=O)N[C@@H](CC(N)=O)C(=O)N[C@H](C(=O)NCC(=O)N[C@@H](CO)C(=O)N[C@@H](CC(N)=O)C(=O)N[C@H](C(=O)N1CCC[C@H]1C(N)=O)[C@@H](C)O)C(C)C)[C@@H](C)O)N(C)C(=O)[C@H](C)NC(=O)CN(C)C(=O)[C@@H](Cc1ccccc1)NC(=O)[C@H](CC(N)=O)NC(=O)[C@H](CC(N)=O)NC(=O)[C@H](CO)NC(=O)[C@H](CO)NC(=O)[C@H](CCCNC(=N)N)NC(=O)[C@H](Cc1c[nH]cn1)NC(=O)[C@H](CC(C)C)NC(=O)[C@H](Cc1ccccc1)NC(=O)[C@H](CCC(=O)O)NC(=O)[C@H](C)NC(=O)[C@H](CC(C)C)NC(=O)[C@H](CCCNC(=N)N)NC(=O)[C@H](CCC(N)=O)NC(=O)[C@@H](NC(=O)[C@H](C)NC(=O)[C@@H]1CSSC[C@H](NC(=O)[C@H](CCCCN)NC(=O)CC[C@H](NC(=O)CCCCCCCCCCCCCCCCCCC(=O)O)C(=O)O)C(=O)N[C@@H](CC(N)=O)C(=O)N[C@@H]([C@@H](C)O)C(=O)N[C@@H](C)C(=O)N[C@@H]([C@@H](C)O)C(=O)N1)[C@@H](C)O [Compound 72, [19CD]-isoGlu-KC()NTATC()ATQRLAEFLHRSSNN-DPhe-Gly(Me)-A-Ile(Me)-L-DSer-STNVGSNTP] ({C20 diacid-γGlu}-KCNTATCATQRLAEFLHRSSNN[dF][Sar]A[NMeI]L[dS]STNVGSNTP-NH2; disulfide 2-7) | 90 | 81 | 80 | 2.7 | 1850
CC[C@H](C)[C@H](NC(=O)[C@@H]1CCCN1C(=O)CNC(=O)[C@H](Cc1ccccc1)NC(=O)[C@H](CC(N)=O)NC(=O)[C@H](CC(N)=O)NC(=O)[C@H](CO)NC(=O)[C@H](CO)NC(=O)[C@H](Cc1c[nH]cn1)NC(=O)[C@H](Cc1c[nH]cn1)NC(=O)[C@H](CC(C)C)NC(=O)[C@H](Cc1ccccc1)NC(=O)[C@H](CCC(=O)O)NC(=O)[C@H](C)NC(=O)[C@H](CC(C)C)NC(=O)[C@H](CCCNC(=N)N)NC(=O)[C@H](CCC(N)=O)NC(=O)[C@@H](NC(=O)[C@H](C)NC(=O)[C@@H]1CSSC[C@H](NC(=O)[C@H](CCCNC(=N)N)NC(=O)CC[C@H](NC(=O)CCCCCCCCCCCCCCCCCCC(=O)O)C(=O)O)C(=O)N[C@@H](CC(N)=O)C(=O)N[C@@H]([C@@H](C)O)C(=O)N[C@@H](C)C(=O)N[C@@H]([C@@H](C)O)C(=O)N1)[C@@H](C)O)C(=O)N[C@@H](CC(C)C)C(=O)N1CCC[C@H]1C(=O)N1CCC[C@H]1C(=O)N[C@H](C(=O)N[C@@H](CC(N)=O)C(=O)N[C@H](C(=O)NCC(=O)N[C@@H](CO)C(=O)N[C@@H](CC(N)=O)C(=O)N[C@H](C(=O)N1CCC[C@H]1C(N)=O)[C@@H](C)O)C(C)C)[C@@H](C)O [NN96, N-α-[(S)-4-carboxy-4-(19-carboxynonadecanoylamino)butyryl]-[Arg1,Glu14,His17,Pro37]-pramlintide, reference compound] ({C20 diacid-γGlu}-RCNTATCATQRLAEFLHHSSNNFGPILPPTNVGSNTP-NH2; disulfide 2-7) |  |  |  | 4.73 | 2080
CC[C@H](C)[C@@H](C(=O)N[C@@H](CC(C)C)C(=O)N[C@@H](CO)C(=O)N[C@@H](CO)C(=O)N[C@H](C(=O)N[C@@H](CCC(=O)O)C(=O)N[C@H](C(=O)NCC(=O)N[C@@H](CO)C(=O)N[C@@H](CCC(=O)O)C(=O)N[C@H](C(=O)N1CCC[C@H]1C(N)=O)[C@@H](C)O)C(C)C)[C@@H](C)O)N(C)C(=O)[C@H](C)NC(=O)CN(C)C(=O)[C@H](Cc1ccccc1)NC(=O)[C@H](CO)NC(=O)[C@H](CO)NC(=O)[C@H](CCCNC(=N)N)NC(=O)[C@H](Cc1c[nH]cn1)NC(=O)[C@H](CC(C)C)NC(=O)[C@H](Cc1ccccc1)NC(=O)[C@H](CCC(=O)O)NC(=O)[C@H](C)NC(=O)[C@H](CC(C)C)NC(=O)[C@H](CCCNC(=N)N)NC(=O)[C@H](CCC(N)=O)NC(=O)[C@@H](NC(=O)[C@H](C)NC(=O)[C@@H]1CSSC[C@H](NC(=O)[C@H](CCCNC(=N)N)NC(=O)CC[C@H](NC(=O)CCCCCCCCCCCCCCCCCCC(=O)O)C(=O)O)C(=O)N[C@@H](CC(N)=O)C(=O)N[C@@H]([C@@H](C)O)C(=O)N[C@@H](C)C(=O)N[C@@H]([C@@H](C)O)C(=O)N1)[C@@H](C)O [Compound 82, [19CD]-isoGlu-RC()NTATC()ATQRLAEFLHRSSF-Gly(Me)-A-Ile(Me)-LSSTEVGSETP-NH2] ({C20 diacid-γGlu}-RCNTATCATQRLAEFLHRSSF[Sar]A[NMeI]LSSTEVGSETP-NH2; disulfide 2-7) |  |  |  | 4.01 | 2650
CC[C@H](C)[C@@H](C(=O)N[C@@H](CC(C)C)C(=O)N[C@@H](CO)C(=O)N[C@@H](CO)C(=O)N[C@H](C(=O)N[C@@H](CCC(=O)O)C(=O)N[C@H](C(=O)NCC(=O)N[C@@H](CO)C(=O)N[C@@H](CCC(=O)O)C(=O)N[C@H](C(=O)N1CCC[C@H]1C(N)=O)[C@@H](C)O)C(C)C)[C@@H](C)O)N(C)C(=O)[C@H](C)NC(=O)CN(C)C(=O)[C@H](Cc1ccccc1)NC(=O)[C@H](CO)NC(=O)[C@H](CO)NC(=O)[C@H](CCCNC(=N)N)NC(=O)[C@H](Cc1c[nH]cn1)NC(=O)[C@H](CC(C)C)NC(=O)[C@H](Cc1ccccc1)NC(=O)[C@H](CCC(=O)O)NC(=O)[C@H](C)NC(=O)[C@H](CC(C)C)NC(=O)[C@H](CCCNC(=N)N)NC(=O)[C@H](CCC(=O)O)NC(=O)[C@@H](NC(=O)[C@H](C)NC(=O)[C@@H]1CSSC[C@H](NC(=O)[C@H](CCCNC(=N)N)NC(=O)CC[C@H](NC(=O)CCCCCCCCCCCCCCCCCCC(=O)O)C(=O)O)C(=O)NCC(=O)N[C@@H]([C@@H](C)O)C(=O)N[C@@H](C)C(=O)N[C@@H]([C@@H](C)O)C(=O)N1)[C@@H](C)O [Compound 162, [19CD]-isoGlu-RC()GTATC()ATERLAEFLHRSSF-Gly(Me)-A-Ile(Me)-LSSTEVGSETP-NH2] ({C20 diacid-γGlu}-RCGTATCATERLAEFLHRSSF[Sar]A[NMeI]LSSTEVGSETP-NH2; disulfide 2-7) |  |  |  | 5.92 | 1790
CC[C@H](C)[C@@H](C(=O)N[C@@H](CC(C)C)C(=O)N[C@@H](CO)C(=O)N[C@@H](CO)C(=O)N[C@H](C(=O)N[C@@H](CC(=O)O)C(=O)N[C@H](C(=O)NCC(=O)N[C@@H](CO)C(=O)N[C@@H](CC(=O)O)C(=O)N[C@H](C(=O)N1CCC[C@H]1C(N)=O)[C@@H](C)O)C(C)C)[C@@H](C)O)N(C)C(=O)[C@H](C)NC(=O)CN(C)C(=O)[C@H](Cc1ccccc1)NC(=O)[C@H](CO)NC(=O)[C@H](CO)NC(=O)[C@H](CCCNC(=N)N)NC(=O)[C@H](Cc1c[nH]cn1)NC(=O)[C@H](CC(C)C)NC(=O)[C@H](Cc1ccccc1)NC(=O)[C@H](CCC(=O)O)NC(=O)[C@H](C)NC(=O)[C@H](CC(C)C)NC(=O)[C@H](CCCNC(=N)N)NC(=O)[C@H](CC(=O)O)NC(=O)[C@@H](NC(=O)[C@H](C)NC(=O)[C@@H]1CSSC[C@H](NC(=O)[C@H](CCCNC(=N)N)NC(=O)CC[C@H](NC(=O)CCCCCCCCCCCCCCCCCCC(=O)O)C(=O)O)C(=O)N2CCC[C@H]2C(=O)N[C@@H]([C@@H](C)O)C(=O)N[C@@H](C)C(=O)N[C@@H]([C@@H](C)O)C(=O)N1)[C@@H](C)O [Compound 172, [19CD]-isoGlu-RC()PTATC()ATDRLAEFLHRSSF-Gly(Me)-A-Ile(Me)-LSSTDVGSDTP-NH2] ({C20 diacid-γGlu}-RCPTATCATDRLAEFLHRSSF[Sar]A[NMeI]LSSTDVGSDTP-NH2; disulfide 2-7) |  |  |  | 9.16 | 1460
